Biological target: T1, ATM protein immunoprecipitated from HeLa cell nuclear extract (Homo sapiens, UniProt Q13315)
T1 construct: ATM protein was immunoprecipitated from HeLa cell nuclear extract; endogenous in cells; host or cells: HeLa cell nuclear extract (immunoprecipitated with rabbit polyclonal anti-ATM antiserum)
Experiment: In vitro ATM inhibition assay (phosphorylation of GSTp53N66 on serine 15, chemiluminescent detection); note: tested normally from 100 µM down to 0.1 nM
Assay type: biochemical
Settings: read-out: IC50 values (the concentration at which 50% of the enzyme activity is inhibited), ATM inhibition
Outline: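 Immunoprecipitated HeLa nuclear ATM (C-terminal anti-sera) with GSTp53N66 substrate in Hepes pH 7.4 buffer with MgCl2/MnCl2; inhibitor preincubated 10 min at 37 °C, then Na-ATP added, 1 h at 37 °C.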

T1 sequence (Q13315 whole entry): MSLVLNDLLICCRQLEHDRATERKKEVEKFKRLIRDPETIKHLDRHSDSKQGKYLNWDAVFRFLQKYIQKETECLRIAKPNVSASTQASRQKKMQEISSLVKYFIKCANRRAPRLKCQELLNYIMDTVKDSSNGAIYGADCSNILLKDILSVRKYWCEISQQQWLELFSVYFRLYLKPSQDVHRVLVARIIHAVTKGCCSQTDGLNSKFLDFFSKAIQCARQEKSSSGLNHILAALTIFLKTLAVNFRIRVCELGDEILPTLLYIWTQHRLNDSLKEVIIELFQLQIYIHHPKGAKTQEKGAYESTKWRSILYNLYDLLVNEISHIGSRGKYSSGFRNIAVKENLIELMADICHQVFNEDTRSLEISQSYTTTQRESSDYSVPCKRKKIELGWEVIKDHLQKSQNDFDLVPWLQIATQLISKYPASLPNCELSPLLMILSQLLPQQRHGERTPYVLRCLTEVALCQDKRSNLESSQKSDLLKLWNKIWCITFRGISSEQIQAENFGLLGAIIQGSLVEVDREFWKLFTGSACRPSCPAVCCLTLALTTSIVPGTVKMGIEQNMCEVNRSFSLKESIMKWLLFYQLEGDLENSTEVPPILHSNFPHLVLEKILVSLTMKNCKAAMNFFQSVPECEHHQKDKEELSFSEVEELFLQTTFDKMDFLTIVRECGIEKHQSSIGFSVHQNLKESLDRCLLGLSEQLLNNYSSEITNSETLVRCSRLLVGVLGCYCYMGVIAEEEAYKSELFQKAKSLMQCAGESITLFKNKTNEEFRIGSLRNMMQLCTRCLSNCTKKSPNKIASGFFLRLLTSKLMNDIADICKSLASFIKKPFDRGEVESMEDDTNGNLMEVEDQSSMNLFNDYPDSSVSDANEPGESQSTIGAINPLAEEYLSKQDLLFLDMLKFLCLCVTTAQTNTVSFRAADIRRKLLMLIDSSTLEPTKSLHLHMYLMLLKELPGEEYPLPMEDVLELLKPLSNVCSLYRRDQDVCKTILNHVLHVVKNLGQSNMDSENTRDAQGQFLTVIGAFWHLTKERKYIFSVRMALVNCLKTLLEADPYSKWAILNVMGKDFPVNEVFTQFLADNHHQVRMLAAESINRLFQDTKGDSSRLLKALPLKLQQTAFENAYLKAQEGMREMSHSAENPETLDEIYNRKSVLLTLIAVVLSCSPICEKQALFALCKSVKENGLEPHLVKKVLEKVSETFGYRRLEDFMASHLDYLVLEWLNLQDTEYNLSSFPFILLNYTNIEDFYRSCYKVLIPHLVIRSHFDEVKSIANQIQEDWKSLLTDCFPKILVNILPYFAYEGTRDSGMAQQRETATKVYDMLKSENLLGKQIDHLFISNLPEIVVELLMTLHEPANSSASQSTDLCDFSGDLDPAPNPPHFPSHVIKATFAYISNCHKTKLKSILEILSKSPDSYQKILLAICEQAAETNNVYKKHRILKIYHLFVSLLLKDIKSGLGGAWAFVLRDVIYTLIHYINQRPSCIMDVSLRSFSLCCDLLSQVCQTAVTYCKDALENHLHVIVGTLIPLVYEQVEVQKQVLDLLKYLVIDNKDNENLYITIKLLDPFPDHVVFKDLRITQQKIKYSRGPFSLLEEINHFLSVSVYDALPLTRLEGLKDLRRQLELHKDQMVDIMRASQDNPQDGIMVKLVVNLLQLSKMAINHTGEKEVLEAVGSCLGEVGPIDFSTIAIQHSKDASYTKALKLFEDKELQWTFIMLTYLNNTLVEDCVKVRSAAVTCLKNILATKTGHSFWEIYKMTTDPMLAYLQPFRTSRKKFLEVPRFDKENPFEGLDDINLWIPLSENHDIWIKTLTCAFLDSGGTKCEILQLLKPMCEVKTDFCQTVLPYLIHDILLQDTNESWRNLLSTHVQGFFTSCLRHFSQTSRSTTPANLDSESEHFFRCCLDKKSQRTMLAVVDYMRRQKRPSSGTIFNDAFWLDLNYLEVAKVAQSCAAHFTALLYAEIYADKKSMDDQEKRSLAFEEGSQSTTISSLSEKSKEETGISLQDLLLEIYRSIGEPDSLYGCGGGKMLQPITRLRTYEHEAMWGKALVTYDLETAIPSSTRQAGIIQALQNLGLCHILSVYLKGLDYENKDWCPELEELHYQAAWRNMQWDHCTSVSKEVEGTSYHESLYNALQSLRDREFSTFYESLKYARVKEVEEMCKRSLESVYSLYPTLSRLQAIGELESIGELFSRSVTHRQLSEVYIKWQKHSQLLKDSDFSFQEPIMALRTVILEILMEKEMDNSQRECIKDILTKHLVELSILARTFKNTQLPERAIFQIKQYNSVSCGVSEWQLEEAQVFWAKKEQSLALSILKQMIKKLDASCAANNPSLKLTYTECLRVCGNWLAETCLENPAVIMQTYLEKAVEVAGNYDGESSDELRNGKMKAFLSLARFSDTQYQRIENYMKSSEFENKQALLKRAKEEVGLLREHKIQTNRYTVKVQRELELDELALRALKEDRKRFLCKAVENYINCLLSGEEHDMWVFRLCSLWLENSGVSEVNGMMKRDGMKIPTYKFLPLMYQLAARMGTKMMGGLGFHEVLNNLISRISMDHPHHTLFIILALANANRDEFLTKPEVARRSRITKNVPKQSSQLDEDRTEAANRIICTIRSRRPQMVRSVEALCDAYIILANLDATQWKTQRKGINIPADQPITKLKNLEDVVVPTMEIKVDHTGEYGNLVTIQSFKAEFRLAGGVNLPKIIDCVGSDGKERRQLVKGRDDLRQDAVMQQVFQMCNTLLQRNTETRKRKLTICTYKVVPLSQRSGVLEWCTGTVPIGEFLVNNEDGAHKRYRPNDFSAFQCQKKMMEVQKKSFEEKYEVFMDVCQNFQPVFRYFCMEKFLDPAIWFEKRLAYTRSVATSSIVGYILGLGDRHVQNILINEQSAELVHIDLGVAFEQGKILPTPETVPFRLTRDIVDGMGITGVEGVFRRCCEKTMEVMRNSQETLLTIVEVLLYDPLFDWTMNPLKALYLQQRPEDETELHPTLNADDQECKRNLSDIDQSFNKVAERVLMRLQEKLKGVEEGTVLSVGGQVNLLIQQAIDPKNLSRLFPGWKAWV

Structure (SMILES) | IC50
CCN1CCN(CC(=O)Nc2ccc3c(c2)Cc2cccc(-c4cc(=O)cc(N5CCOCC5)o4)c2S3)CC1 [Compound 342] | < 200 nM
O=C(CN1CCN(c2ccccn2)CC1)Nc1ccc2c(c1)Cc1cccc(-c3cc(=O)cc(N4CCOCC4)o3)c1S2 [Compound 343] | < 200 nM
O=C(CN1CCN(c2ccc(F)cc2)CC1)Nc1ccc2c(c1)Cc1cccc(-c3cc(=O)cc(N4CCOCC4)o3)c1S2 [Compound 344] | < 200 nM
O=C(CN1CCN(c2ncccn2)CC1)Nc1ccc2c(c1)Cc1cccc(-c3cc(=O)cc(N4CCOCC4)o3)c1S2 [Compound 345] | < 200 nM
CC(C)NC(=O)CN1CCN(CC(=O)Nc2ccc3c(c2)Cc2cccc(-c4cc(=O)cc(N5CCOCC5)o4)c2S3)CC1 [Compound 346] | < 200 nM
CN(C)CCN1CCN(CC(=O)Nc2ccc3c(c2)Cc2cccc(-c4cc(=O)cc(N5CCOCC5)o4)c2S3)CC1 [Compound 347] | < 200 nM
O=C(CN1CCN(CCO)CC1)Nc1ccc2c(c1)Cc1cccc(-c3cc(=O)cc(N4CCOCC4)o3)c1S2 [Compound 348] | < 200 nM
CC(=O)N1CCN(CCC(=O)Nc2ccc3c(c2)Cc2cccc(-c4cc(=O)cc(N5CCOCC5)o4)c2S3)CC1 [Compound 349] | < 200 nM
CC(C)N1CCN(CCC(=O)Nc2ccc3c(c2)Cc2cccc(-c4cc(=O)cc(N5CCOCC5)o4)c2S3)CC1 [Compound 351] | < 200 nM
CCN1CCN(CCC(=O)Nc2ccc3c(c2)Cc2cccc(-c4cc(=O)cc(N5CCOCC5)o4)c2S3)CC1 [Compound 352] | < 200 nM
O=C(CCN1CCN(c2ccccn2)CC1)Nc1ccc2c(c1)Cc1cccc(-c3cc(=O)cc(N4CCOCC4)o3)c1S2 [Compound 353] | < 200 nM
O=C(CCN1CCN(c2ccc(F)cc2)CC1)Nc1ccc2c(c1)Cc1cccc(-c3cc(=O)cc(N4CCOCC4)o3)c1S2 [Compound 354] | < 200 nM
O=C(CCN1CCN(c2ncccn2)CC1)Nc1ccc2c(c1)Cc1cccc(-c3cc(=O)cc(N4CCOCC4)o3)c1S2 [Compound 355] | < 200 nM
CN(C)CCN1CCN(CCC(=O)Nc2ccc3c(c2)Cc2cccc(-c4cc(=O)cc(N5CCOCC5)o4)c2S3)CC1 [Compound 356] | < 200 nM
C[C@@H]1CN(CCOc2ccc3c(c2)Sc2cccc(-c4cc(=O)cc(N5CCOCC5)o4)c2S3)C[C@H](C)O1 [Compound 359] | < 200 nM
CN1CCN(CCOc2ccc3c(c2)Sc2cccc(-c4cc(=O)cc(N5CCOCC5)o4)c2S3)CC1 [Compound 361] | < 200 nM
O=c1cc(-c2cccc3c2Sc2ccc(OCCNCc4ccncc4)cc2S3)oc(N2CCOCC2)c1 [Compound 366] | < 200 nM
O=c1cc(-c2cccc3c2Sc2ccc(OCCNCCO)cc2S3)oc(N2CCOCC2)c1 [Compound 367] | < 200 nM

Structure (SMILES) | IC50
CC(=O)N1CCN(CCOc2ccc3c(c2)Sc2cccc(-c4cc(=O)cc(N5CCOCC5)o4)c2S3)CC1 [Compound 378] | < 200 nM
O=c1cc(-c2cccc3c2Sc2ccc(OCCNCC(F)(F)F)cc2S3)oc(N2CCOCC2)c1 [Compound 379] | < 200 nM
O=c1cc(-c2cccc3c2Sc2ccc(OCCNCCc4ccccn4)cc2S3)oc(N2CCOCC2)c1 [Compound 381] | < 200 nM
CCCCNCCOc1ccc2c(c1)Sc1cccc(-c3cc(=O)cc(N4CCOCC4)o3)c1S2 [Compound 382] | < 200 nM
CCCNCCOc1ccc2c(c1)Sc1cccc(-c3cc(=O)cc(N4CCOCC4)o3)c1S2 [Compound 383] | < 200 nM
O=C(c1ccco1)N1CCN(CCOc2ccc3c(c2)Sc2cccc(-c4cc(=O)cc(N5CCOCC5)o4)c2S3)CC1 [Compound 395] | < 200 nM
CN(CCOc1ccc2c(c1)Sc1cccc(-c3cc(=O)cc(N4CCOCC4)o3)c1S2)CCc1ccccn1 [Compound 398] | < 200 nM
O=c1cc(-c2cccc3c2Sc2ccc(OCCN4CCN(c5ccccn5)CC4)cc2S3)oc(N2CCOCC2)c1 [Compound 399] | < 200 nM
O=c1cc(-c2cccc3c2Sc2ccc(OCCN4CCOCC4)cc2S3)oc(N2CCOCC2)c1 [Compound 403] | < 200 nM
O=C(COc1ccc2c(c1)Sc1cccc(-c3cc(=O)cc(N4CCOCC4)o3)c1S2)NC1CCC1 [Compound 405] | < 200 nM
CCCCNC(=O)COc1ccc2c(c1)Sc1cccc(-c3cc(=O)cc(N4CCOCC4)o3)c1S2 [Compound 407] | < 200 nM
N#CCNC(=O)COc1ccc2c(c1)Sc1cccc(-c3cc(=O)cc(N4CCOCC4)o3)c1S2 [Compound 409] | < 200 nM
O=C(COc1ccc2c(c1)Sc1cccc(-c3cc(=O)cc(N4CCOCC4)o3)c1S2)NC(CO)(CO)CO [Compound 410] | < 200 nM
O=C(COc1ccc2c(c1)Sc1cccc(-c3cc(=O)cc(N4CCOCC4)o3)c1S2)NC(CO)CO [Compound 411] | < 200 nM
O=C(COc1ccc2c(c1)Sc1cccc(-c3cc(=O)cc(N4CCOCC4)o3)c1S2)N1CCN(C(=O)c2ccco2)CC1 [Compound 414] | < 200 nM
NC(=O)C1CCN(C(=O)COc2ccc3c(c2)Sc2cccc(-c4cc(=O)cc(N5CCOCC5)o4)c2S3)CC1 [Compound 416] | < 200 nM
O=C(COc1ccc2c(c1)Sc1cccc(-c3cc(=O)cc(N4CCOCC4)o3)c1S2)N1CCSCC1 [Compound 417] | < 200 nM

The remaining lines, values ahead:

IC50 | Structure (SMILES)
< 200 nM | O=C(COc1ccc2c(c1)Sc1cccc(-c3cc(=O)cc(N4CCOCC4)o3)c1S2)N1CCCC(CO)C1 (stereo not shown) [Compound 418]
< 200 nM | O=C(COc1ccc2c(c1)Sc1cccc(-c3cc(=O)cc(N4CCOCC4)o3)c1S2)Nc1cccnc1 [Compound 419]
< 200 nM | O=C(COc1ccc2c(c1)Sc1cccc(-c3cc(=O)cc(N4CCOCC4)o3)c1S2)N[C@@H](CO)C(=O)OCc1ccccc1 [Compound 424]
< 200 nM | O=C(COc1ccc2c(c1)Sc1cccc(-c3cc(=O)cc(N4CCOCC4)o3)c1S2)N1CCN(c2ccccn2)CC1 [Compound 426]
< 200 nM | C[C@@H]1CN(C(=O)COc2ccc3c(c2)Sc2cccc(-c4cc(=O)cc(N5CCOCC5)o4)c2S3)C[C@H](C)O1 [Compound 433]
< 200 nM | CN(C)CCN(C)C(=O)COc1ccc2c(c1)Sc1cccc(-c3cc(=O)cc(N4CCOCC4)o3)c1S2 [Compound 434]
< 200 nM | COCCN1CCN(C(=O)COc2ccc3c(c2)Sc2cccc(-c4cc(=O)cc(N5CCOCC5)o4)c2S3)CC1 [Compound 435]
< 200 nM | O=C(COc1ccc2c(c1)Sc1cccc(-c3cc(=O)cc(N4CCOCC4)o3)c1S2)N1CCN(CCO)CC1 [Compound 436]
< 200 nM | CC(C)N1CCN(C(=O)COc2ccc3c(c2)Sc2cccc(-c4cc(=O)cc(N5CCOCC5)o4)c2S3)CC1 [Compound 437]
< 200 nM | CCN1CCN(C(=O)COc2ccc3c(c2)Sc2cccc(-c4cc(=O)cc(N5CCOCC5)o4)c2S3)CC1 [Compound 438]
< 200 nM | O=C(COc1ccc2c(c1)Sc1cccc(-c3cc(=O)cc(N4CCOCC4)o3)c1S2)NCc1ccncc1 [Compound 439]
< 200 nM | O=C(COc1ccc2c(c1)Sc1cccc(-c3cc(=O)cc(N4CCOCC4)o3)c1S2)N1CCCCC1 [Compound 440]
< 200 nM | O=C(COc1ccc2c(c1)Sc1cccc(-c3cc(=O)cc(N4CCOCC4)o3)c1S2)NCCN1CCNC1=O [Compound 441]
< 200 nM | CN1CCCN(C(=O)COc2ccc3c(c2)Sc2cccc(-c4cc(=O)cc(N5CCOCC5)o4)c2S3)CC1 [Compound 442]
< 200 nM | O=C(COc1ccc2c(c1)Sc1cccc(-c3cc(=O)cc(N4CCOCC4)o3)c1S2)N(CCO)CCO [Compound 444]
< 200 nM | COCCN(CCOC)C(=O)COc1ccc2c(c1)Sc1cccc(-c3cc(=O)cc(N4CCOCC4)o3)c1S2 [Compound 445]

IC50 | Structure (SMILES)
< 200 nM | O=C(COc1ccc2c(c1)Sc1cccc(-c3cc(=O)cc(N4CCOCC4)o3)c1S2)N1CCCCCC1 [Compound 446]
< 200 nM | CN1CCN(C(=O)COc2ccc3c(c2)Sc2cccc(-c4cc(=O)cc(N5CCOCC5)o4)c2S3)CC1 [Compound 450]
< 200 nM | O=c1cc(-c2cccc3c2Sc2ccc(S(=O)(=O)NCC(F)(F)F)cc2C3)oc(N2CCOCC2)c1 [Compound 454]
< 200 nM | O=c1cc(-c2cccc3c2Sc2ccc(S(=O)(=O)NCC4CCCO4)cc2C3)oc(N2CCOCC2)c1 (stereo not shown) [Compound 455]
< 200 nM | CCCCNS(=O)(=O)c1ccc2c(c1)Cc1cccc(-c3cc(=O)cc(N4CCOCC4)o3)c1S2 [Compound 457]
< 200 nM | CCCNS(=O)(=O)c1ccc2c(c1)Cc1cccc(-c3cc(=O)cc(N4CCOCC4)o3)c1S2 [Compound 458]
< 200 nM | C=CCNS(=O)(=O)c1ccc2c(c1)Cc1cccc(-c3cc(=O)cc(N4CCOCC4)o3)c1S2 [Compound 462]
< 200 nM | O=c1cc(-c2cccc3c2Sc2ccc(S(=O)(=O)NCCc4cnc[nH]4)cc2C3)oc(N2CCOCC2)c1 [Compound 465]
< 200 nM | O=c1cc(-c2cccc3c2Sc2ccc(S(=O)(=O)NC(CO)CO)cc2C3)oc(N2CCOCC2)c1 [Compound 466]
< 200 nM | O=c1cc(-c2cccc3c2Sc2ccc(S(=O)(=O)N4CCCC4)cc2C3)oc(N2CCOCC2)c1 [Compound 468]
< 200 nM | NC(=O)C1CCN(S(=O)(=O)c2ccc3c(c2)Cc2cccc(-c4cc(=O)cc(N5CCOCC5)o4)c2S3)CC1 [Compound 469]
< 200 nM | O=c1cc(-c2cccc3c2Sc2ccc(S(=O)(=O)N4CCCC(CO)C4)cc2C3)oc(N2CCOCC2)c1 (stereo not shown) [Compound 471]
< 200 nM | O=c1cc(-c2cccc3c2Sc2ccc(S(=O)(=O)Nc4cccnc4)cc2C3)oc(N2CCOCC2)c1 [Compound 472]
< 200 nM | CC(=O)N1CCN(S(=O)(=O)c2ccc3c(c2)Cc2cccc(-c4cc(=O)cc(N5CCOCC5)o4)c2S3)CC1 [Compound 476]
< 200 nM | C[C@@H]1CN(S(=O)(=O)c2ccc3c(c2)Cc2cccc(-c4cc(=O)cc(N5CCOCC5)o4)c2S3)C[C@H](C)O1 [Compound 478]
< 200 nM | CN1CCN(S(=O)(=O)c2ccc3c(c2)Cc2cccc(-c4cc(=O)cc(N5CCOCC5)o4)c2S3)CC1 [Compound 480]
